Assay results from patent US5972976A, “Aminostilbazole derivative and medicine” (priority 1994, dated 1999).
Converted amounts (≈) assume the structure as drawn. Read-outs that look alike come from different tables or passages of the source.

Columns and labels:
tubulin = conditions: J. Med. Chem. 1991, 34, 2579; cited from earlier work
[1] = tested on: KB (human nasopharynx carcinoma); experiment: In vitro anticancer effect (MTT), KB cell line; type: cell-based; conditions: KB cells, 72 hours, read-out: IC50 (50% cell growth-inhibitory concentration)
Method: (§1) In Vitro anticancer effects on KB (human nasopharynx carcinoma), Colon 38 (mouse colon cancer), and WiDr (human colorectal cancer) cell lines
(§2) Each of KB, Colon 38, and WiDr cell lines were respectively cultured using 10% fetal calf serum-supplemented D-MEM medium (Nissui Pharmaceutical). Each monolayer of cells was exfoliated with a 50:50 (v/v) mixture of 0.25% trypsin and 0.02% ethylenediaminetetracetic acid and after inactivation of trypsin, the cells were collected by centrifuging at 800 rpm for 3 minutes and suspended in the same medium as above. Using a hemocytometer, the number of the cells in the suspension were counted. The suspension was diluted with the medium to 5×10^4 cells/ml and distributed to a 96-well flat-bottomed plate, 100 μl per well.
(§3) The test drug was first dissolved in dimethyl sulfoxide at a concentration of 2 mg/ml and diluted with the above medium to 20 μg/ml. Using this solution for the highest concentration, a doubling dilution series was prepared and 100 μl of each dilution was added to the above cell suspension.
(§4) The plate was then incubated under 5% CO2 -air at 37° C. for 72 hours. Then, a 5 mg/ml solution of MTT [3-(4,5-dimethylthiazol-2-yl)-2,5-diphenyltetrazolium bromide] was added to the plate, 30 μl per well and the reaction was carried out under 5% CO2 -air at 37° C. for 4 hours. After the reaction, the solution in each well was aspirated off and 100 μl/well of dimethyl sulfoxide was added. After 5 minutes of shaking, the absorbance at 540 nm was measured with a Multiscan (Titertek) and the 50% cell growth-inhibitory concentration (IC50) was calculated.

[2] = tested on: WiDr (human colorectal cancer); experiment: In vitro anticancer effect (MTT), WiDr cell line; type: cell-based; conditions: WiDr cells, 72 hours, read-out: IC50 (50% cell growth-inhibitory concentration)
Method: as §1, §2, §3, §4

[3] = tested on: Colon 38 (mouse colon cancer); experiment: In vitro anticancer effect (MTT), Colon 38 cell line; type: cell-based; conditions: Colon 38 cells, 72 hours, read-out: IC50 (50% cell growth-inhibitory concentration)
Method: as §1, §2, §3, §4

[4] = tested on: Colon-26 (mouse colon cancer) cells transplanted in mice; type: in vivo, mouse (BALB/c, male); conditions: oral, once daily for 8 days
Method: Anticancer activity against Colon-26 (mouse colon cancer) cells transplanted in mice
Using an injection syringe, Colon-26 cells cultured in vitro were transplanted subcutaneously in a dose of 5×10^5 /animal in the right thoracic region of BALB/c mice (5 weeks old, male). As in Test Example 3, the mice were divided into groups of 6 when the tumor volume had reached about 150 mm^3. Starting the following day, the test drug suspended in 0.5% methylcellulose solution was administered orally by gastric gavage once daily for 8 days. The tumor volume was measured at a predetermined interval by the same method as in Test Example 3 and the tumor growth inhibition rate in each drug treatment group relative to the control group was calculated. As the test compound, the compound of Example 3A was used.

microtubule protein = experiment: Microtubule polymerization-inhibitory activity; type: biochemical; conditions: porcine brain microtubule protein, 37° C., pH 6.8, 350 nm; read-out: 50% inhibitory concentration against microtubule protein polymerization
Method: Microtubule polymerization-inhibitory activity Microtubule polymerization-inhibitory activity
A microtubule protein (a mixed solution of microtubule protein and microtubule-bound protein) was purified from a crude porcine brain extract according to the method of Williams et al. [Method in Enzymology, 85, 36, 1982] to isolate and the microtubule polymerization inhibitory activity of the compound of the invention was studied. The microtubule protein solution was diluted to 4 mg/ml as purified microtubule protein with GTP (guanosine-5'-triphosphate)-added reaction buffer (pH 6.8) {100 mM MES [2-(N-morpholinoethanesulfonic acid], 0.5 mM MgCl2 -1 mM EGTA (ethylene glycol bis(β-aminoethyl ether)-N,N,N',N'-tetracetic acid), 1 mM GTP} under ice-cooling and after degassing in ice, the test drug was added. Using a spectrophotometer maintained at 37° C., the absorbance of the system at 350 nm was measured at 2-minute intervals for 30 minutes to construct a polymerization curve and the concentration corresponding to 50% inhibition of microtubule protein polymerization was calculated. As the test drug, the compound of Example 3A was used.

[5] = tested on: WiDr tumor cells transplanted in nude mice; experiment: Growth inhibitory activity against WiDr tumor cells transplanted in nude mice; type: in vivo; conditions: oral; for Growth inhibition rate at day 16 after initiation of administration: once daily
Description: Growth inhibitory activity against WiDr tumor cells transplanted in nude mice The tumor subcutaneously subcultured in nude mice (BALB/c nu/nu, male) aged 5-7 weeks were excised. After removal of the skin and connective tissue around the tumor, the tumor mass was split to remove the central necrotic tissue and, then, cut into cubes with a 2 mm side. One cube was loaded into a grafting needle and transplanted subcutaneously in the right thoracic region of the nude mouse. The major and minor diameters of the tumor were measured with calipers and the tumor volume was calculated by means of Equation 1. Starting when the volume had reached about 100 mm^3, the mice were divided into 6 individuals per group and the test drug suspended in 0.5% methylcellulose solution was administered orally by gastric gavage once daily.
Volume=1/2×major diameter×(minor diameter)^2Equation 1
The tumor volume was determined by the above method at predetermined intervals. From the tumor volume thus calculated, the growth rate was calculated by means of Equation 2. Then, using Equation 3, the growth inhibition rate in each drug treatment group relative to the control group was calculated.
Growth rate=tumor volume at day n/tumor volume at initiation of administration Equation 2
Growth inhibition rate (%)=(1-growth rate in drug treatment group/growth rate in control group)×100 Equation 3
As the test compound, the compound of Example 3A was used.

[6] = tested on: mouse monocytic leukemia P-388 cell line; experiment: In vivo anticancer activity against mouse monocytic leukemia P-388 cell line; set-up: species or system mouse (CDF1); conditions: oral, twice (following day and after 5 days)
Method: In vivo anticancer activity against mouse monocytic leukemia P-388 cell line
A suspension of tumor cells was transplanted intraperitoneally in CDF1 mice in a dose of 10^6 cells/animal. On the following dav and after 5 days, or twice, the test drug suspended in 0.5% methylcellulose solution was administered orally. The experiment was performed in 8-12 mice for each control group and 6 mice for each drug treatment group.
For evaluation, the median survival time in days was determined for each drug treatment group (T) and control group (C) and T/C (%) was calculated.

[7] = Acute toxicity, single oral administration; conditions: mouse, in vivo, mortality after 2 weeks, probit method
Method: Male 5-week-old CDF1 mice were used. After the compound of Example 3B or 34 was orally administered once, the mortality rate was investigated after 2 weeks and the LD50 value was calculated by the probit method. […] The high safety of the compound of the invention is obvious.

Row | SMILES | IC50 [1] [µg/mL] | IC50 [2] [µg/mL] | IC50 [3] [µg/mL] | T/C (median survival time, treated/control) ([6]; 25 mg/kg) [%] | T/C (median survival time, treated/control) ([6]; 50 mg/kg) [%] | T/C (median survival time, treated/control) ([6]; 100 mg/kg) [%] | T/C (median survival time, treated/control) ([6]; 200 mg/kg) [%] | other results
1 | COc1ccc(/C=C\c2cc(OC)c(OC)c(OC)c2)cc1 [(Z)-3,4,5-trimethoxy-4'-methoxystilbene] | – | – | – | – | – | – | – | tubulin polymerization-inhibitory activity (tubulin): have tubulin polymerization-inhibitory activity
2 | COc1ccc(S(=O)(=O)Nc2ncccc2/C=C/c2ccccc2)cc1 [Example 1, (E)-2-[[(p-Methoxyphenyl)sulfonyl]amino]-3-(2-phenyl-ethenyl)pyridine] | 0.44 (≈ 1.2 µM) | 0.45 (≈ 1.23 µM) | 0.75 (≈ 2.05 µM) | – | – | – | – | –
3 | COc1ccc(S(=O)(=O)Nc2ccccc2/C=C\c2cccnc2)cc1 [Example 2 (cis), 3-[2-[2-[[(p-Methoxyphenyl)sulfonyl]amino]phenyl]ethenyl]pyridine] | 4.86 (≈ 13.3 µM) | 4.81 (≈ 13.1 µM) | 6.48 (≈ 17.7 µM) | – | – | – | – | –
4 | COc1ccc(S(=O)(=O)Nc2ccccc2/C=C/c2cccnc2)cc1 [Example 2 (trans), 3-[2-[2-[[(p-Methoxyphenyl)sulfonyl]amino]phenyl]ethenyl]pyridine] | 0.1 (≈ 0.273 µM) | 0.09 (≈ 0.246 µM) | 0.15 (≈ 0.409 µM) | – | – | – | – | –
5 | COc1ccc(S(=O)(=O)Nc2ccccc2/C=C/c2ccncc2)cc1 [Example 3A, (E)-4-[2-[2-[[(p-Methoxyphenyl)sulfonyl]amino]phenyl]ethenyl]pyridine] | 0.0026 (≈ 0.0071 µM) | 0.0025 (≈ 0.00682 µM) | 0.0031 (≈ 0.00846 µM) | – | – | – | – | Growth inhibition rate at day 13 after initiation of administration ([4]; 25 mg/kg/day): 44.8%; Growth inhibition rate at day 13 after initiation of administration ([4]; 50 mg/kg/day): 95.3%; IC50 (microtubule protein): 11.2 µM; Growth inhibition rate at day 16 after initiation of administration ([5]; 10 mg/kg/day): 16.4%; Growth inhibition rate at day 16 after initiation of administration ([5]; 30 mg/kg/day): 57.0%; death by the end of the administration period ([5]; 100 mg/kg, once daily for 14 days): no death occurred; Growth inhibition rate at day 16 after initiation of administration ([5]; 100 mg/kg/day): 81.7%
6 | COc1ccc(S(=O)(=O)Nc2ccccc2/C=C/c2ccncc2)cc1.Cl [Example 3B, (E)-4-[2-[2-[[(p-Methoxyphenyl)sulfonyl]amino]phenyl]ethenyl]pyridine Hydrochloride] | – | – | – | 116 | 126 | 168 | 221 | LD50 at 336 h [7]: 510 mg/kg
7 | COc1ccc(S(=O)(=O)Nc2ccccc2/C=C/c2ccccn2)cc1 [Example 4, (E)-2-[2-[2-[[(p-Methoxyphenyl)sulfonyl]amino]phenyl]ethenyl]pyridine] | 0.12 (≈ 0.327 µM) | 0.16 (≈ 0.437 µM) | 0.16 (≈ 0.437 µM) | – | – | – | – | –
8 | COc1ccc(S(=O)(=O)Nc2ccccc2/C=C/c2cc[n+]([O-])cc2)cc1 [Example 20, (E)-4-[2-[2-[[(p-Methoxyphenyl)sulfonyl]amino]phenyl]ethenyl]pyridine 1-oxide] | – | – | – | 135 | 115 | 180 | 195 | –
9 | COc1ccc(S(=O)(=O)N(CCO)c2ccccc2/C=C/c2ccncc2)cc1 [Example 34, (E)-4-[2-[2-[N-(2-Hydroxyethyl)-N-[(p-methoxyphenyl)sulfonyl]amino]phenyl]ethenyl]pyridine] | – | – | – | 105 | 124 | 167 | 210 | LD50 at 336 h [7]: 754 mg/kg
10 | COc1ccc(S(=O)(=O)N(CCO)c2ccccc2/C=C/c2cc[n+]([O-])cc2)cc1 [Example 49, (E)-4-[2-[2-[N-(2-Hydroxyethyl)-N-[(p-methoxyphenyl)sulfonyl]amino]phenyl]ethenyl]pyridine 1-oxide] | – | – | – | – | – | 185 | 220 | –
11 | COc1ccc(S(=O)(=O)N(C(C)=O)c2ccccc2/C=C/c2cc[n+]([O-])cc2)cc1 [Example 57, (E)-4-[2-[2-[N-Acetyl-N-[(p-methoxyphenyl)sulfonyl]amino]phenyl]ethenyl]pyridine 1-oxide] | – | – | – | 115 | 160 | 215 | 250 | –
